Data published in PubChem BioAssay (NCI).
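Exposure lasted 48 hours, with cells grown in 96-well plates and compounds tested at five concentrations. GI50 marks 50% less growth. TGI: concentration producing complete growth inhibition.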

Key:
Experiment in all cases: NCI anticancer screen, dose series, 48 h
[1] = tested on: T-47D breast
[2] = tested on: HCT-116 colon
[3] = tested on: KM12 colon
[4] = tested on: OVCAR-5 ovarian
[5] = tested on: SF-295 CNS
[6] = tested on: SK-OV-3 ovarian
[7] = tested on: CAKI-1 renal
[8] = tested on: RXF 393 renal
[9] = tested on: OVCAR-3 ovarian
[10] = tested on: SF-539 CNS

Structure (SMILES)	GI50 [1] [µM]	TGI [1] [µM]	GI50 [2] [µM]	TGI [2] [µM]	GI50 [3] [µM]	TGI [3] [µM]	GI50 [4] [µM]	TGI [4] [µM]	GI50 [5] [µM]	TGI [5] [µM]	GI50 [6] [µM]	TGI [6] [µM]	GI50 [7] [µM]	TGI [7] [µM]	GI50 [8] [µM]	TGI [8] [µM]	GI50 [9] [µM]	TGI [9] [µM]	GI50 [10] [µM]	TGI [10] [µM]
O=C1C=CC2C3C(=O)N(c4ccccc4)C(=O)C3C1N2Cc1ccccc1 (stereo not given)	4.93	18.2	1.56	3.27	2.56	7.43	6.74	19.3	6.41	15.4	13.2	26.1	4.1	8.15	2.42	6.53	3.45	11.3	1.66	3.81
CCC[CH2][Sn]1([CH2]CCC)[O]C(=O)c2cccc([N+](=O)[O-])c2C(=O)[O]1	0.0604	0.27	0.435	1.62	1.6	3.16	1.11	2.49	1.55	2.95	1.69	3.07	0.332	1.39	0.27	0.783	1.06	2.3	0.497	1.73
CC(C)[C@@H](C(=O)O[C@@H]1/C=C/C(=O)O[C@@H](C)CCC/C=C/[C@@H]2C[C@H](O)C[C@H]21)N(C)C	30	> 100	22.3	64.4	2.91	10.2	35.9	> 100	6	24.9	23.8	> 96	11.9	42.8	7.33	44.1	6.34	26.7	22.5	67.4
COc1cc(OC)c(/C=C/C(=O)c2c(OC)cc(OC)cc2OC)c(OC)c1	2.01	> 100	0.6	10.2	0.469	2.57	2.8	53	0.75	> 21	2.66	25.9	1.66	> 37.2	1.3	4.99	0.233	0.8	1.27	3.31
